From US5994342A, “3-(substituted methyl)-4-oxa-1-azabicyclo[3.2.0]heptan-7-one derivatives useful as antitumor agents” (priority 1994, dated 1999)
Converted amounts (≈) assume the structure as drawn. Counter-ions that a name gives are not always drawn.

Key:
KB cells = assay: In vitro KB cell cytotoxicity assay (crystal violet); type: cell-based; settings: Homo sapiens, 72 h, 3 days culture, read-out: KB Cell Cytotoxicity TD50
Procedure, shortened: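 Cells seeded at 3×10^4 cells/ml in Eagle's MEM with 10% calf serum, cultured one day, then exposed to compound for three days at 37° C, 5% CO2. Glutaraldehyde-fixed cells stained with 0.05% crystal violet, eluted and read at OD540; TD50 from linear regression of log-logit plot of growth inhibition.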

Sarcoma 180 = assay: In vivo antitumor activity against Sarcoma 180; set-up: species or system male ICR mice; settings: i.p., days 1, 5 and 9; for inhibition in vivo at 12.5 mg/kg / inhibition in vivo at 25 mg/kg / inhibition in vivo at 50 mg/kg / inhibition in vivo at 100 mg/kg: Mus musculus, Sarcoma-180, ip, 288 h, tumor s.c., tumor weight day 12, read-out: % Inhibition of tumor growth
Method: In Vivo Antitumor Activity Against Sarcoma 180
The compounds of general formula (I) were tested in vivo against Sarcoma 180 xenografted tumor to mice as illustrated herein after.
Sarcoma 180, 5×10^6 cells were inoculated by S.C. to male ICR mice (6 week old) on day 0. Drugs were administered on days 1, 5 and 9. Mice were killed and tumor weight was measured on day 12 after transplantation. The percentage inhibition of tumor growth was calculated from the mean tumor weight of the treated group compared with that of the control group. Number of mice used in each group was between 6 to 7.

C[C@H](N)C(=O)OC[C@H]1CN2C(=O)C[C@@H]2O1.Cl (mixture of isomers) [Example 48B, (3RS,5SR)-3-(L-2-Aminopropanoyl)oxymethyl-4-oxa-1-azabicyclo[3.2.0]heptan-7-one hydrochloride]
IC50 (KB cells): 0.878 µg/mL | Mortality in 12 days (Sarcoma 180; 12.5 mg/kg/day): 0/6 | Mortality in 12 days (Sarcoma 180; 25 mg/kg/day): 0/6 | Mortality in 12 days (Sarcoma 180; 50 mg/kg/day): 2/6 | inhibition in vivo at 12.5 mg/kg (Sarcoma 180; 12.5 mg/kg/day): 44.9% | inhibition in vivo at 25 mg/kg (Sarcoma 180; 25 mg/kg/day): 66.8% | inhibition in vivo at 50 mg/kg (Sarcoma 180; 50 mg/kg/day): 77.3%

CC(C)[C@H](N)C(=O)N[C@@H](COCc1ccccc1)C(=O)OCC1CN2C(=O)CC2O1 (stereo partly drawn) [Example 74B, (3RS,5SR)-3-[L-2-N-(L-2-N-Amino-3-methylbutyryl)amino-3-benzyloxypropanoyloxymethyl]-4-oxa-1-azabicyclo[3.2.0]heptan-7-one hydrochloride]
IC50 (KB cells): 0.669 µg/mL | Mortality in 12 days (Sarcoma 180; 50 mg/kg/day): 0/6 | Mortality in 12 days (Sarcoma 180; 100 mg/kg/day): 1/6 | inhibition in vivo at 50 mg/kg (Sarcoma 180; 50 mg/kg/day): 49.9% | inhibition in vivo at 100 mg/kg (Sarcoma 180; 100 mg/kg/day): 84.1%

CS(=O)(=O)NC[C@H]1CN2C(=O)C[C@H]2O1 (racemic) [Example 35, (3RS,5RS)-3-(N-Methanesulfonylaminomethyl)-4-oxa-1-azabicyclo[3.2.0]heptan-7-one]
IC50 (KB cells): 0.198 µg/mL (≈ 0.899 µM) | Mortality in 12 days (Sarcoma 180; 100 mg/kg/day): 1/6 | inhibition in vivo at 100 mg/kg (Sarcoma 180; 100 mg/kg/day): 64.6%

O=C(NC[C@@H]1CN2C(=O)C[C@H]2O1)c1ccccc1 (racemic) [Example 23, (3RS,5RS)-3-(N-Benzoylaminomethyl)-4-oxa-1-azabicyclo[3.2.0]heptan-7-one]
IC50 (KB cells): 0.088 µg/mL (≈ 0.357 µM) | Mortality in 12 days (Sarcoma 180; 100 mg/kg/day): 0/6 | inhibition in vivo at 100 mg/kg (Sarcoma 180; 100 mg/kg/day): 27.8%

CC(C)[C@@H](N)C(=O)OC[C@H]1CN2C(=O)C[C@@H]2O1.Cl (mixture of isomers) [Example 60B, (3RS,5SR)-3-(D-2-Amino-3-methylbutyryl)oxymethyl-4-oxa-1-azabicyclo[3.2.0]heptan-7-one hydrochloride]
IC50 (KB cells): 0.903 µg/mL | Mortality in 12 days (Sarcoma 180; 50 mg/kg/day): 0/6 | Mortality in 12 days (Sarcoma 180; 100 mg/kg/day): 0/6 | inhibition in vivo at 50 mg/kg (Sarcoma 180; 50 mg/kg/day): 49.8% | inhibition in vivo at 100 mg/kg (Sarcoma 180; 100 mg/kg/day): 77.7%

C[C@@H](N)C(=O)OC[C@H]1CN2C(=O)C[C@@H]2O1.Cl (mixture of isomers) [Example 51B, (3RS,5SR)-3-(D-2-Aminopropanoyl)oxymethyl-4-oxa-1-azabicyclo[3.2.0]heptan-7-one hydrochloride]
IC50 (KB cells): 0.867 µg/mL | Mortality in 12 days (Sarcoma 180; 12.5 mg/kg/day): 0/6 | Mortality in 12 days (Sarcoma 180; 25 mg/kg/day): 0/6 | Mortality in 12 days (Sarcoma 180; 50 mg/kg/day): 0/6 | Mortality in 12 days (Sarcoma 180; 100 mg/kg/day): 5/6 | inhibition in vivo at 12.5 mg/kg (Sarcoma 180; 12.5 mg/kg/day): 40.9% | inhibition in vivo at 25 mg/kg (Sarcoma 180; 25 mg/kg/day): 50.6% | inhibition in vivo at 50 mg/kg (Sarcoma 180; 50 mg/kg/day): 82.4% | inhibition in vivo at 100 mg/kg (Sarcoma 180; 100 mg/kg/day): 93.8%

N[C@H](CCC(=O)NCC1CN2C(=O)CC2O1)C(=O)O (stereo partly drawn) [Example 69B, (3RS,5RS)-3-N-(D-4-Amino-4-carboxybutyryl)aminomethyl-4-oxa-1-azabicyclo[3.2.0]heptan-7-one]
IC50 (KB cells): 2.47 µg/mL (≈ 9.11 µM) | Mortality in 12 days (Sarcoma 180; 100 mg/kg/day): 0/6 | inhibition in vivo at 100 mg/kg (Sarcoma 180; 100 mg/kg/day): 37.8%

CC(=O)N[C@@H](CO)C(=O)OCC1CN2C(=O)CC2O1 (stereo partly drawn) [Example 75A, (3RS,5SR)-3-(L-2-Acetamido-3-hydroxypropanoyl)oxymethyl-4-oxa-1-azabicyclo[3.20]heptan-7-one]
IC50 (KB cells): 1.98 µg/mL (≈ 7.27 µM) | Mortality in 12 days (Sarcoma 180; 12.5 mg/kg/day): 0/6 | Mortality in 12 days (Sarcoma 180; 25 mg/kg/day): 0/6 | inhibition in vivo at 12.5 mg/kg (Sarcoma 180; 12.5 mg/kg/day): 42.8% | inhibition in vivo at 25 mg/kg (Sarcoma 180; 25 mg/kg/day): 61.9%

C[C@@H](NC(=O)Cc1cccs1)C(=O)N[C@H](C)C(=O)OCC1CN2C(=O)CC2O1 (stereo partly drawn) [Example 52, (3RS,5SR)-3-{D-2-N-[D-2-N-(Thiophen-2-yl)acetylaminopropanoyl]aminopropanoyl}oxymethyl-4-oxa-1-azabicyclo[3.2.0]heptan-7-one]
IC50 (KB cells): 0.197 µg/mL (≈ 0.481 µM) | Mortality in 12 days (Sarcoma 180; 25 mg/kg/day): 0/6 | Mortality in 12 days (Sarcoma 180; 50 mg/kg/day): 0/6 | Mortality in 12 days (Sarcoma 180; 100 mg/kg/day): 2/6 | inhibition in vivo at 25 mg/kg (Sarcoma 180; 25 mg/kg/day): 45.2% | inhibition in vivo at 50 mg/kg (Sarcoma 180; 50 mg/kg/day): 63.9% | inhibition in vivo at 100 mg/kg (Sarcoma 180; 100 mg/kg/day): 70.7%
